In patent publication US5525626A (priority 1989, dated 1996):

How the values were obtained:
Assay in all cases: 3H-thymidine assay
Assay type in all cases: cell-based
At T 20 = settings: Mus musculus, AtT20
Method: (§1) The cell lines were cultivated as indicated in Example 1.
(§2) The antiproliferative effect of the 1,2-benzopyrone derivatives according to the invention on the tumor cell lines in each case was shown with the help of the ^3 H-thymidine insertion and with reference to growth curves.
(§3) In a 24-well-plate, in each case 10^4 cells of the line to be investigated were inoculated per well. Approximately 48 hours later the cells were half-confluent; the medium was then changed and replaced by a medium containing the active substance in question (cf Table 3). After a further 48 hours 0.25 μCi ^3 H-thymidine (Ammersham) was added to each well and the cells were incubated for a further 24 hours. Subsequently the cultures were washed twice with ice-cold PBS and the high-molecular-weight ^3 H-radioactivity was precipitated with 5% trichloroacetic acid for one hour at 4° C. After the washing of the cells in PBS the ^3 H-radioactivity was solubilized with 0.3M NaOH and measured in the counter. The growth-inhibition was determined by comparing the thymidine insertion of the cells treated with active substance with untreated cells.
(§4) The active substance concentration in each case was so chosen that ^3 H-thymidine insertion was 50% inhibited. The active substance concentrations used under this aspect for the active substances and cell lines in each case are given in table 4 below in μM/ml, […]

K-562 leukemic cells = settings: Homo sapiens, K562
Method: as §1, §2, §3, §4

[1] = tested on: Tp 483 MG glioblastoma cells
G-361 melanoma cells = settings: Homo sapiens, G-361
[2] = tested on: Tp 410 N neuroblastoma cells; settings: Homo sapiens, Neuroblastoma cell
[3] = tested on: Tp 242 MG glioblastoma cells; settings: Homo sapiens
Daudi leukemic cells = settings: Homo sapiens
A-375 melanoma cells = settings: Homo sapiens, A-375
[4] = tested on: GV-1 prostate carcinoma cells
[5] = tested on: Z-R-75-1 breast cancer cells; settings: Homo sapiens, ZR-75-1
[6] = 1 μM/ml, read-out: 3H-thymidine tracer (%) of control
[7] = 2 μM/ml, read-out: 3H-thymidine tracer (%) of control
[8] = 4 μM/ml, read-out: 3H-thymidine tracer (%) of control
[9] = 8 μM/ml, read-out: 3H-thymidine tracer (%) of control
[10] = 16 μM/ml, read-out: 3H-thymidine tracer (%) of control
[11] = 25 μM/ml, read-out: 3H-thymidine tracer (%) of control
[12] = 50 μM/ml, read-out: 3H-thymidine tracer (%) of control
[13] = 100 μM/ml, read-out: 3H-thymidine tracer (%) of control
[14] = 250 μM/ml, read-out: 3H-thymidine tracer (%) of control
[15] = 500 μM/ml, read-out: 3H-thymidine tracer (%) of control
[16] = Table 4, read-out: active substance concentration at which 3H-thymidine insertion was 50% inhibited
[17] = 1 μM/ml, read-out: 3H-thymidine insertion (%) of control
[18] = 2 μM/ml, read-out: 3H-thymidine insertion (%) of control
[19] = 4 μM/ml, read-out: 3H-thymidine insertion (%) of control
[20] = 8 μM/ml, read-out: 3H-thymidine insertion (%) of control
[21] = 16 μM/ml, read-out: 3H-thymidine insertion (%) of control
[22] = 25 μM/ml, read-out: 3H-thymidine insertion (%) of control
[23] = 50 μM/ml, read-out: 3H-thymidine insertion (%) of control
[24] = 100 μM/ml, read-out: 3H-thymidine insertion (%) of control
[25] = 250 μM/ml, read-out: 3H-thymidine insertion (%) of control
[26] = 500 μM/ml, read-out: 3H-thymidine insertion (%) of control
[27] = Table 4, *: maximum usable dosage, no 50% inhibition, read-out: active substance concentration at which 3H-thymidine insertion was 50% inhibited

O=c1ccc2ccc(O)cc2o1 [7-OH-1,2-BP, 7-hydroxy-1,2-benzopyrone]
activity at 1 µM (At T 20; [6]): 98% | activity at 2 µM (At T 20; [7]): 89% | activity at 4 µM (At T 20; [8]): 85% | activity at 8 µM (At T 20; [9]): 78% | activity at 16 µM (At T 20; [10]): 65% | activity at 25 µM (At T 20; [11]): 60% | activity at 50 µM (At T 20; [12]): 62% | activity at 100 µM (At T 20; [13]): 44% | activity at 250 µM (At T 20; [14]): 38% | activity at 500 µM (At T 20; [15]): 31% | IC50 (At T 20; [16]): 50 µM | activity at 1 µM (K-562 leukemic cells; [6]): 100% | activity at 2 µM (K-562 leukemic cells; [7]): 91% | activity at 4 µM (K-562 leukemic cells; [8]): 84% | activity at 8 µM (K-562 leukemic cells; [9]): 76% | activity at 16 µM (K-562 leukemic cells; [10]): 67% | activity at 25 µM (K-562 leukemic cells; [11]): 53% | activity at 50 µM (K-562 leukemic cells; [12]): 47% | activity at 100 µM (K-562 leukemic cells; [13]): 42% | activity at 250 µM (K-562 leukemic cells; [14]): 39% | activity at 500 µM (K-562 leukemic cells; [15]): 37% | IC50 (K-562 leukemic cells; [16]): 50 µM | activity at 1 µM [1, 17]: 97% | activity at 2 µM [1, 18]: 95% | activity at 4 µM [1, 19]: 89% | activity at 8 µM [1, 20]: 81% | activity at 16 µM [1, 21]: 69% | activity at 25 µM [1, 22]: 66% | activity at 50 µM [1, 23]: 39% | activity at 100 µM [1, 24]: 32% | activity at 250 µM [1, 25]: 27% | activity at 500 µM [1, 26]: 25% | IC50 [1, 16]: 25 µM | activity at 1 µM (G-361 melanoma cells; [6]): 94% | activity at 2 µM (G-361 melanoma cells; [7]): 91% | activity at 4 µM (G-361 melanoma cells; [8]): 77% | activity at 8 µM (G-361 melanoma cells; [9]): 77% | activity at 16 µM (G-361 melanoma cells; [10]): 74% | activity at 25 µM (G-361 melanoma cells; [11]): 68% | activity at 50 µM (G-361 melanoma cells; [12]): 58% | activity at 100 µM (G-361 melanoma cells; [13]): 53% | activity at 250 µM (G-361 melanoma cells; [14]): 42% | activity at 500 µM (G-361 melanoma cells; [15]): 38% | IC50 (G-361 melanoma cells; [27]): 125 µM | activity at 1 µM [2, 17]: 96% | activity at 2 µM [2, 18]: 91% | activity at 4 µM [2, 19]: 80% | activity at 8 µM [2, 20]: 73% | activity at 16 µM [2, 21]: 67% | activity at 25 µM [2, 22]: 50% | activity at 50 µM [2, 23]: 48% | activity at 100 µM [2, 24]: 42% | activity at 250 µM [2, 25]: 36% | activity at 500 µM [2, 26]: 21% | IC50 [2, 16]: 25 µM | activity at 1 µM [3, 17]: 93% | activity at 2 µM [3, 18]: 91% | activity at 4 µM [3, 19]: 91% | activity at 8 µM [3, 20]: 84% | activity at 16 µM [3, 21]: 73% | activity at 25 µM [3, 22]: 55% | activity at 50 µM [3, 23]: 43% | activity at 100 µM [3, 24]: 39% | activity at 250 µM [3, 25]: 35% | activity at 500 µM [3, 26]: 32% | IC50 [3, 16]: 25 µM | activity at 1 µM (Daudi leukemic cells; [6]): 98% | activity at 2 µM (Daudi leukemic cells; [7]): 89% | activity at 4 µM (Daudi leukemic cells; [8]): 82% | activity at 8 µM (Daudi leukemic cells; [9]): 76% | activity at 16 µM (Daudi leukemic cells; [10]): 63% | activity at 25 µM (Daudi leukemic cells; [11]): 54% | activity at 50 µM (Daudi leukemic cells; [12]): 49% | activity at 100 µM (Daudi leukemic cells; [13]): 38% | activity at 250 µM (Daudi leukemic cells; [14]): 35% | activity at 500 µM (Daudi leukemic cells; [15]): 28% | IC50 (Daudi leukemic cells; [16]): 50 µM | activity at 1 µM (A-375 melanoma cells; [6]): 100% | activity at 2 µM (A-375 melanoma cells; [7]): 92% | activity at 4 µM (A-375 melanoma cells; [8]): 86% | activity at 8 µM (A-375 melanoma cells; [9]): 81% | activity at 16 µM (A-375 melanoma cells; [10]): 72% | activity at 25 µM (A-375 melanoma cells; [11]): 64% | activity at 50 µM (A-375 melanoma cells; [12]): 53% | activity at 100 µM (A-375 melanoma cells; [13]): 49% | activity at 250 µM (A-375 melanoma cells; [14]): 47% | activity at 500 µM (A-375 melanoma cells; [15]): 44% | IC50 (A-375 melanoma cells; [27]): 100 µM | activity at 1 µM [4, 6]: 100% | activity at 2 µM [4, 7]: 89% | activity at 4 µM [4, 8]: 83% | activity at 8 µM [4, 9]: 75% | activity at 16 µM [4, 10]: 69% | activity at 25 µM [4, 11]: 63% | activity at 50 µM [4, 12]: 51% | activity at 100 µM [4, 13]: 39% | activity at 250 µM [4, 14]: 36% | activity at 500 µM [4, 15]: 27% | IC50 [4, 16]: 75 µM | activity at 1 µM [5, 6]: 96% | activity at 2 µM [5, 7]: 91% | activity at 4 µM [5, 8]: 82% | activity at 8 µM [5, 9]: 73% | activity at 16 µM [5, 10]: 65% | activity at 25 µM [5, 11]: 55% | activity at 50 µM [5, 12]: 49% | activity at 100 µM [5, 13]: 43% | activity at 250 µM [5, 14]: 39% | activity at 500 µM [5, 15]: 27% | IC50 [5, 27]: 50 µM
